Experiments:
OATPs = assay: in vitro; conditions: human, Caco-2, ER, Caco-2, 2 μM, + ES 0.05 mM (OATPs)
Method: (§1) Caco-2, MDCK and MDCK-MRP2 cells were donated by Prof. Yan Xie and Yueming Ma from Shanghai University of Traditional Chinese Medicine. The cells were grown in culture dishes (Corning® Costar, Cambridge, MA, USA) using DMEM supplemented with 10% FBS, 1% NEAA and 1% penicillin-streptomycin solution. The cells were cultured in 5% CO2 and […] with 90% relative humidity at 37°C. The medium was replaced every other day during incubation. The cells were passaged every 3–4 days between 70 and 80% confluence at a 1:5 split ratio using 0.25% trypsin-EDTA. For the transport experiments, the cells from passages between 30 and 45 were seeded at 1 × 10^5 cells/cm^2 onto permeable polycarbonate inserts (0.45 μm pore size, seeding surface of 0.6 cm^2, Millipore, MA, USA) in 24-well plastic plates. The media in the culture plates were changed every other day for the first week after seeding and were replaced daily afterward. […] The cells were used for the transport experiments 21–28 (Caco-2) or 5–7 (MDCK and MDCK-MRP2) days after seeding, and only monolayers with a TEER-value above 420 Ω cm^2 were used during the studies.
(§2) The apical (AP) and basolateral (BL) sides are typical of polarized Caco-2, MDCK and MDCK-MRP2 epithelial cells. Before the experiments, the polarized cell monolayers were washed twice with warm HBSS solution and subsequently preincubated (37°C, 30 min). Afterward, HBSS solution on both sides of the cell monolayers was removed using a mini desktop vacuum pump. […] The final DMSO concentration in the HBSS or drug mixture was below 0.5%. The monolayers were incubated at 37°C, and 100 μL samples were taken at 30, 60, 90, and 120 min from the acceptor compartment and immediately replaced with the same volume of prewarmed fresh blank HBSS. TEER measurements for assessing the membrane integrity took place before and after the experiments.
(§3) The apparent permeability coefficients (Papp) and ER were calculated as Equations (2) and (3): […]
(§4) where dQ/dt is the steady-state flux, A is the membrane surface area, and C0 is the initial drug concentration in the donor compartment. PappBA is the Papp-value measured in BL to AP direction and PappAB is the Papp-value measured in AP to BL direction. It indicated the involvement of an active transport process when the ER-value is above 1.5 (Hubatsch et al., [2007]).

MRP2 = assay: in vitro; conditions: human, Caco-2, ER, Caco-2, 2 μM
Method: as §1, §2, §3, §4

[1] = tested on: ATP (adenosine triphosphate); assay: in vitro; conditions: human, Caco-2, ER, Caco-2, 2 μM, + NaN3 10 mM (ATP)
Method: as §1, §2, §3, §4

OATs = assay: in vitro; conditions: human, Caco-2, ER, Caco-2, 2 μM, + Cimetidine 0.05 mM (OATs)
Method: as §1, §2, §3, §4

Caco-2 cell monolayers = assay: in vitro
Method: as §1, §2, §3, §4

MDCK cell monolayers = assay: in vitro; conditions: 2 μM
Method: as §1, §2, §3, §4

in vitro = assay: in vitro
Method: as §1, §2, §3, §4

PEPT1 = assay: in vitro; conditions: human, Caco-2, ER, Caco-2, 2 μM, + Gly-Sar 10 mM (PEPT1)
Method: as §1, §2, §3, §4

MDR1 = assay: in vitro; conditions: human, Caco-2, ER, Caco-2, 2 μM
Method: as §1, §2, §3, §4

BCRP = assay: in vitro; conditions: human, Caco-2, ER, Caco-2, 2 μM
Method: as §1, §2, §3, §4

Na+/K+-ATPase = assay: in vitro; conditions: human, Caco-2, 2 μM, + Sodium vanadate 0.05 mM (Na^+)
Method: as §1, §2, §3, §4

[2] = Caco-2, 2 μM, + Apigenin 0.025 mM (BCRP)
[3] = Caco-2, 2 μM, + Cimetidine 0.05 mM (OATs)
[4] = Caco-2, 2 μM, + ES 0.05 mM (OATPs)
[5] = Caco-2, 2 μM, + Gly-Sar 10 mM (PEPT1)
[6] = Caco-2, 2 μM, + Ko143 0.01 mM (BCRP)
[7] = Caco-2, 2 μM, + MK571 0.05 mM (MRP2)
[8] = Caco-2, 2 μM, + NaN3 10 mM (ATP)
[9] = Caco-2, 2 μM, + Phloretin 0.3 mM (MCTs)
[10] = Caco-2, 2 μM, + Phloridzin 0.5 mM (SGLT1)
[11] = Caco-2, 2 μM, + Probenecid 0.2 mM (MRP2)
[12] = Caco-2, 2 μM, + Quinidine 0.1 mM (MDR1)
[13] = Caco-2, 2 μM, + TEA 5 mM (OCTs/OCTNs)
[14] = Caco-2, 2 μM, + Verapamil 0.1 mM (MDR1)
[15] = Caco-2, 2 μM, Control (no inhibitor or substrate)
[16] = Caco-2, 2 μM, Control (pH 7.4, 37°C, without EDTA)
[17] = Control (pH 7.4, 37°C, without EDTA)
[18] = with EDTA 5 mM, listed as harmaline

## COc1ccc2c3c([nH]c2c1)C(C)=NCC3 [Harmaline]
OATPs
  efflux ratio: 1.12
MRP2; + MK571 0.05 mM (MRP2)
  efflux ratio: 0.93
MRP2; + Probenecid 0.2 mM (MRP2)
  efflux ratio: 0.96
[1]
  efflux ratio: 1.15
OATs
  efflux ratio: 0.97
Caco-2 cell monolayers; Caco-2, 2 μM
  PappAB at pH 7.4 relative to pH 5.5: 3.65 folds
Caco-2 cell monolayers; Caco-2, 2 μM, 4°C
  PappAB: 7.59 ± 0.33^*** 1 × 10^−6 cm/s
Caco-2 cell monolayers; Caco-2, 2 μM, 4°C, listed as harmaline
  PappAB: 7.59 ± 0.33 1 × 10^−6 cm/s
Caco-2 cell monolayers; [2]
  Modulatory effect: −
  PappAB: 27.85 ± 2.09 1 × 10^−6 cm/s
  PappBA: 26.04 ± 1.43 1 × 10^−6 cm/s
Caco-2 cell monolayers; [3]
  Modulatory effect: −
  PappBA: 26.16 ± 1.79 1 × 10^−6 cm/s
Caco-2 cell monolayers; [4]
  Modulatory effect: +
  PappAB: 24.33 ± 0.49 1 × 10^−6 cm/s
  PappBA: 26.41 ± 0.94 1 × 10^−6 cm/s
Caco-2 cell monolayers; [5]
  Modulatory effect: −
  PappAB: 27.73 ± 0.95 1 × 10^−6 cm/s
  PappBA: 26.31 ± 1.18 1 × 10^−6 cm/s
Caco-2 cell monolayers; [6]
  Modulatory effect: −
  PappBA: 26.15 ± 0.48 1 × 10^−6 cm/s
Caco-2 cell monolayers; [7]
  Modulatory effect: −
  PappAB: 27.90 ± 1.31 1 × 10^−6 cm/s
  PappBA: 25.82 ± 0.71 1 × 10^−6 cm/s
Caco-2 cell monolayers; [8]
  Modulatory effect: +
  PappAB: 22.75 ± 2.68^* 1 × 10^−6 cm/s
  PappBA: 26.18 ± 1.02 1 × 10^−6 cm/s
Caco-2 cell monolayers; [9]
  Modulatory effect: −
  PappAB: 27.77 ± 2.14 1 × 10^−6 cm/s
  PappBA: 26.25 ± 0.91 1 × 10^−6 cm/s
Caco-2 cell monolayers; [10]
  Modulatory effect: −
  PappAB: 27.57 ± 2.40 1 × 10^−6 cm/s
  PappBA: 26.07 ± 1.60 1 × 10^−6 cm/s
Caco-2 cell monolayers; [11]
  Modulatory effect: −
  PappAB: 27.22 ± 1.04 1 × 10^−6 cm/s
  PappBA: 26.10 ± 1.02 1 × 10^−6 cm/s
Caco-2 cell monolayers; [12]
  Modulatory effect: −
  PappAB: 27.54 ± 1.35 1 × 10^−6 cm/s
  PappBA: 26.44 ± 1.47 1 × 10^−6 cm/s
Caco-2 cell monolayers; Caco-2, 2 μM, + Sodium vanadate 0.05 mM (Na^+)
  Modulatory effect: +
Caco-2 cell monolayers; [13]
  Modulatory effect: +
  PappBA: 26.75 ± 1.58 1 × 10^−6 cm/s
Caco-2 cell monolayers; [14]
  Modulatory effect: −
  PappAB: 27.32 ± 1.33 1 × 10^−6 cm/s
  PappBA: 25.68 ± 1.55 1 × 10^−6 cm/s
Caco-2 cell monolayers; [15]
  PappAB: 27.48 ± 0.18 1 × 10^−6 cm/s
  PappBA: 26.19 ± 4.02 1 × 10^−6 cm/s
Caco-2 cell monolayers; [16]
  PappAB: 27.72 ± 1.06 1 × 10^−6 cm/s
  PappBA: 26.42 ± 0.49 1 × 10^−6 cm/s
Caco-2 cell monolayers; Caco-2, 2 μM, with EDTA 5 mM
  PappAB: 35.23 ± 2.68^* 1 × 10^−6 cm/s
  PappBA: 39.57 ± 2.10^* 1 × 10^−6 cm/s
Caco-2 cell monolayers; Caco-2, initial concentration 2 μM
  PappAB: 27.72 ± 1.06 1 × 10^−6 cm/s
Caco-2 cell monolayers; Caco-2 and MDCK, 1, 2, and 5 μM
  ER-values at the tested concentrations: < 1.5
MDCK cell monolayers
  PappAB at 37°C relative to 4°C: 3.77 folds
  PappAB at pH 7.4 relative to pH 5.5: 1.56 folds
MDCK cell monolayers; 4°C
  PappAB: 5.40 ± 0.99^*** 1 × 10^−6 cm/s
  PappBA: 6.65 ± 0.64^*** 1 × 10^−6 cm/s
MDCK cell monolayers; [17]
  PappAB: 20.36 ± 1.82 1 × 10^−6 cm/s
  PappBA: 21.03 ± 2.11 1 × 10^−6 cm/s
MDCK cell monolayers; with EDTA 5 mM
  PappAB: 29.43 ± 1.45^* 1 × 10^−6 cm/s
  PappBA: 26.34 ± 0.93^* 1 × 10^−6 cm/s
MDCK cell monolayers; [18]
  PappAB: 29.43 ± 1.45 1 × 10^−6 cm/s
  PappBA: 26.34 ± 0.93 1 × 10^−6 cm/s
In vitro; dog, MDCK, ER, 2 μM, 4°C
  efflux ratio: 1.23
In vitro; dog, MDCK, ER, 2 μM, with EDTA 5 mM
  efflux ratio: 0.9
In vitro; dog, MDCK, ER, initial concentration 1 μM
  efflux ratio: 1.23
In vitro; dog, MDCK, ER, initial concentration 2 μM
  efflux ratio: 1.03
In vitro; dog, MDCK, ER, initial concentration 5 μM
  efflux ratio: 1.16
In vitro; dog, MDCK, PappAB, initial concentration 1 μM
  Papp A→B: 15.8 ± 1.76 ×10⁻⁶ cm/s
In vitro; dog, MDCK, PappAB, initial concentration 2 μM
  Papp A→B: 20.4 ± 1.82 ×10⁻⁶ cm/s
In vitro; dog, MDCK, PappAB, initial concentration 5 μM
  Papp A→B: 21.2 ± 1.32 ×10⁻⁶ cm/s
In vitro; dog, MDCK, PappBA, initial concentration 1 μM
  Papp B→A: 19.5 ± 2.25 ×10⁻⁶ cm/s
In vitro; dog, MDCK, PappBA, initial concentration 2 μM
  Papp B→A: 21 ± 2.11 ×10⁻⁶ cm/s
In vitro; dog, MDCK, PappBA, initial concentration 5 μM
  Papp B→A: 24.5 ± 2.54 ×10⁻⁶ cm/s
In vitro; dog, MDCK, pH 5.5, ER, 2 μM, pH 5.5
  efflux ratio: 1.18
In vitro; dog, MDCK, pH 5.5, PappAB, 2 μM, pH 5.5
  Papp A→B: 13 ± 2.54 ×10⁻⁶ cm/s
In vitro; dog, MDCK, pH 5.5, PappBA, 2 μM, pH 5.5
  Papp B→A: 15.4 ± 0.91 ×10⁻⁶ cm/s
In vitro; dog, MDCK, pH 7.4, ER, 2 μM, Control (pH 7.4, 37°C, without EDTA)
  efflux ratio: 1.03
In vitro; human, Caco-2, ER, Caco-2, 2 μM, 4°C
  efflux ratio: 1.15
In vitro; human, Caco-2, ER, Caco-2, 2 μM, Control (no inhibitor or substrate)
  efflux ratio: 0.95
In vitro; human, Caco-2, ER, Caco-2, 2 μM, with EDTA 5 mM
  efflux ratio: 1.12
In vitro; human, Caco-2, ER, Caco-2, initial concentration 1 μM
  efflux ratio: 0.93
In vitro; human, Caco-2, ER, Caco-2, initial concentration 2 μM
  efflux ratio: 0.95
In vitro; human, Caco-2, ER, Caco-2, initial concentration 5 μM
  efflux ratio: 1.03
In vitro; human, Caco-2, PappAB, Caco-2, initial concentration 1 μM
  Papp A→B: 27.4 ± 1.44 ×10⁻⁶ cm/s
In vitro; human, Caco-2, PappAB, Caco-2, initial concentration 5 μM
  Papp A→B: 30.1 ± 3.01 ×10⁻⁶ cm/s
In vitro; human, Caco-2, PappBA, Caco-2, 2 μM, 4°C
  Papp B→A: 8.71 ± 1.83 ×10⁻⁶ cm/s
In vitro; human, Caco-2, PappBA, Caco-2, initial concentration 1 μM
  Papp B→A: 25.6 ± 1.95 ×10⁻⁶ cm/s
In vitro; human, Caco-2, PappBA, Caco-2, initial concentration 2 μM
  Papp B→A: 26.4 ± 0.49 ×10⁻⁶ cm/s
In vitro; human, Caco-2, PappBA, Caco-2, initial concentration 5 μM
  Papp B→A: 31 ± 1.4 ×10⁻⁶ cm/s
In vitro; human, Caco-2, pH 5.5, ER, Caco-2, 2 μM, pH 5.5
  efflux ratio: 0.88
In vitro; human, Caco-2, pH 5.5, PappAB, Caco-2, 2 μM, pH 5.5
  Papp A→B: 7.6 ± 0.74 ×10⁻⁶ cm/s
In vitro; human, Caco-2, pH 5.5, PappBA, Caco-2, 2 μM, pH 5.5
  Papp B→A: 6.72 ± 0.76 ×10⁻⁶ cm/s
In vitro; human, Caco-2, pH 7.4, ER, Caco-2, 2 μM, Control (pH 7.4, 37°C, without EDTA)
  efflux ratio: 0.95
PEPT1
  efflux ratio: 0.95
MDR1; + Quinidine 0.1 mM (MDR1)
  efflux ratio: 0.96
MDR1; + Verapamil 0.1 mM (MDR1)
  efflux ratio: 0.94
BCRP; + Apigenin 0.025 mM (BCRP)
  efflux ratio: 0.94
BCRP; + Ko143 0.01 mM (BCRP)
  efflux ratio: 0.93
Na+/K+-ATPase; Caco-2, ER
  efflux ratio: 1.27
Na+/K+-ATPase; Caco-2, PappBA
  Papp B→A: 26.9 ± 1.26 ×10⁻⁶ cm/s

— article PMC5566973 (Frontiers in Pharmacology, 2017)
